Counter-ions that a name gives are not always drawn.
Tests used:
[1] = Acute toxicity (LD50) in mice, intraperitoneal; settings: mouse, in vivo, ip, suspension in carboxymethyl cellulose, observed one week
Experimental: The acute toxicity of the products was determined on groups of 10 mice weighing between 18 and 22 g and the products were intraperitoneally administered in a suspension in carboxymethyl cellulose.

[2] = system: spontaneous hypertendus male rats of the Okamto strain; assay: Antihypertensive activity in spontaneously hypertensive rats, oral (tail arterial pressure); assay type: in vivo, rat; settings: 50 mg/kg oral, hydrochloride form; for % Variation of arterial pressure 1 hour after administration: 1 h on first day; for % Variation of arterial pressure 4 hours after administration: 4 h on first day; for % Variation of arterial pressure, 10th day: 24 h after last administration
Experimental: The arterial pressure was measured before and after the said administration on the rat's tail with a pneumatic collar connected to an electronic translator of pressure and the results of Table II compare the initial arterial pressure with the arterial pressure 1,4 hours of the first day and 24 hours after the last administration.

[3] = system: male rats of the Sprague Dawley S.P.F. strain; assay: Hypotensive activity (carotid arterial pressure) in anesthetized rats, intravenous; assay type: in vivo, rat; settings: 1 mg/kg i.v., hydrochloride form
Experimental: The hypotensive activity was determined on groups of male rats of the Sprague Dawley S.P.F. strain weighing about 300 g which had been anesthesized with an intraveinous administration of 50 mg/kg of nembutal. The test products in their hydrochloride form were administered intraveinously in the jugular vein and the carotidiene arterial pressure was measured before and after the said administration. The variations between the initial arterial pressure and the pressure after the administration was determined as well as the time of duration of the activity and the results are reported in Table I.

[4] = test was for 3 days administration

O=C1Nc2ccccc2C1C1CCN(C[C@H](O)[C@H]2COc3ccccc3O2)CC1 (relative stereo) [Example 2, (dl) erythro 1,3-dihydro-3-{1-[2-(2,3-dihydro-1,4-benzodioxin-2-yl)-2-hydroxyethyl]-piperidin-4-yl}-2H-indol-2-one hydrochloride]
LD50 at 168 h [1]: ~125 mg/kg
% Variation of arterial pressure 1 hour after administration ([2]; 9 days administration): -23%
% Variation of arterial pressure 4 hours after administration ([2]; 9 days administration): -22%
% Variation of arterial pressure, 10th day ([2]; 9 days administration): -9%
% change in arterial pressure ([3]; at 5 min): -30%
% change in arterial pressure ([3]; at 60 min): -20%

O=C1Nc2ccccc2C1C1CCN(C[C@H](O)[C@@H]2COc3ccccc3O2)CC1 (relative stereo) [Example 3, (dl) threo 1,3-dihydro-3-{1-[2-(2,3-dihydro-1,4-benzodioxin-2-yl)-2-hydroxyethyl]-piperidin-4-yl}-2H-indol-2-one hydrochloride]
LD50 at 168 h [1]: ~125 mg/kg
% change in arterial pressure ([3]; at 1 min): -20%
% change in arterial pressure ([3]; at 15 min): -10%

CN1C(=O)C(C2CCN(C[C@H](O)[C@H]3COc4ccccc4O3)CC2)c2ccccc21 (relative stereo) [Example 4, (dl) erythro 1,3-dihydro-3-{1-[2-(2,3-dihydro-1,4-benzodioxin-2-yl)-2-hydroxyethyl]-piperidin-4-yl}-1-methyl-2H-indol-2-one hydrochloride]
LD50 at 168 h [1]: ~200 mg/kg
% Variation of arterial pressure 1 hour after administration [2, 4]: -23%
% Variation of arterial pressure 4 hours after administration [2, 4]: -31%
% Variation of arterial pressure, 10th day [2, 4]: -16%
% change in arterial pressure ([3]; at 1 min): -28%
% change in arterial pressure ([3]; at 5 min): -23%
% change in arterial pressure ([3]; at 10 min): -26%
% change in arterial pressure ([3]; at 30 min): -24%

Cl.O=C1Nc2ccccc2C1C1CCN(CC(O)C2COc3ccccc3O2)CC1 (centres unmarked) [Example 1, 3-{1-[2-(2,3-dihydro-1,4-benzodioxin-2-yl)-2-hydroxyethyl]-piperidin-4-yl}-1,3-dihydro-2H-indol-2-one hydrochloride]
LD50 at 168 h [1]: ~150 mg/kg
% Variation of arterial pressure 1 hour after administration ([2]; 9 days administration): -29%
% Variation of arterial pressure 4 hours after administration ([2]; 9 days administration): -27%
% Variation of arterial pressure, 10th day ([2]; 9 days administration): -8%
% change in arterial pressure ([3]; at 1 min): -20%
% change in arterial pressure ([3]; at 45 min): -10%
